One series deals with Rhizoctonia solani. The series is described as follows: Fungus cake inoculation on pot-cultured seedlings (rice sheath blight). The format is in vivo. The note with it: for control effect against rice sheath blight (in words): at 200 mg/L concentration; for Control effect (%) Rice sheath blight: concentration 200 mg/L, 5% EC diluted with water containing 1% Tween 80. On the procedure:
Test Object: Pseudoperonospora cubensis, Rhizoctonia Solani Test design: the compound in a structure expressed by formula (I) (Y14078) and the compound in a structure expressed by formula (II) (Y14079) are prepared with DMF into 5% emulsifiable concentrate (hereafter abbreviated as EC) respectively, and then the EC is diluted with water containing 1% Tween 80 to prepare 200 mg/L formulation. Each process is repeated for 4 times. Test method for Rhizoctonia solani: two pot-cultured seedlings in the same growth state in the true leaf stage are selected, sprayed with the formulation and then dried, and fungus cakes are attached to the leaves with the hypha side facing the leave. The seedlings are kept in a dark environment at 22-26° C. moisturizing for 24 h, and then the natural lighting is recovered, and the seedlings are cultured for about 4 days. After the disease is developed extensively in the control group, the diameter of the disease speckle at each inoculated site is measured with callipers, and the control effect is calculated. 2.

In series [1] the test system is Pseudoperonospora cubensis. The experiment in a line: Spore suspension spray inoculation method on pot-cultured cucumber seedlings (cucumber downy mildew). In kind it is in vivo. The note with it: for EC50: Pseudoperonospora cubensis, against cucumber downy mildew, from regression of control effect at 6.25-100 mg/L; for control effect against cucumber downy mildew (in words): at 200 mg/L concentration; for Control effect (%) Cucumber downy mildew: concentration 200 mg/L; for Control effect (%) Cucumber downy mildew / Control effect (%): 5% EC diluted with water containing 1% Tween 80; for Control effect (%): cucumber downy mildew, investigated after 5 d. On the procedure:
Test Object: Pseudoperonospora cubensis Test design: the compound in a structure expressed by formula (I) (Y14078), the compound in a structure expressed by formula (II) (Y14079), and a reference chemical amisulbrom are prepared with DMF into 5% emulsifiable concentrate (hereafter abbreviated as EC) respectively, and then the EC is diluted with water containing 1% Tween 80 to 5 concentration gradients, i.e., 100, 50, 25, 12.5, and 6.25 mg/L. Each process is repeated for 4 times. Test method: the biological activity of the formulation is measured with a spore suspension spray inoculation method. Pot-cultured cucumber seedlings in the same growth state in the 1-leaf and 1-heart stage (with the growing point removed) are selected, sprayed with the formulation, and dried naturally. After 24 h, spores on the back side of the leaf infected by the disease is picked with a writing brush dipped with distilled water, and are prepared into spore suspension (2-3×10^5 spores/ml), the spore suspension is sprayed uniformly with an inoculating sprayer (at 0.1 MPa pressure) to the leaves of cucumbers, and then the inoculated cucumber seedlings are moved into a climatic chamber (relative humidity: 100%, temperature: 20° C., light-dark cycle time: 14 h/10 h) and cultured. After 24 h, the relative humidity is maintained at about 90% for induction; after 5 d, grading and investigation are carried out on the basis of the disease situation of the blank control group, and the control effect (%) is calculated according to the disease severity index. Investigation Method and Grading Criteria: Level 0: free from disease; Level 1: disease speckle area accounts for 5% or less of the total area of the leaf; Level 3: disease speckle area accounts for 6%-10% of the total area of the leaf; Level 5: disease speckle area accounts for 11%-25% of the total area of the leaf; Level 7: disease speckle area accounts for 26%-50% of the total area of the leaf; Level 9: disease speckle area accounts for 50% or more of the total area of the leaf. Effect Calculation: Disease index=Σ(quantity of leaves at all levels×relative level value)×100/(total quantity of leaves×9); Control effect (%)=(disease index of the control group−disease index of treated group)×100/disease index of control group Test design: the compound in a structure expressed by formula (I) (Y14078) and the compound in a structure expressed by formula (II) (Y14079) are prepared with DMF into 5% emulsifiable concentrate (hereafter abbreviated as EC) respectively, and then the EC is diluted with water containing 1% Tween 80 to prepare 200 mg/L formulation. Each process is repeated for 4 times. Test method for Pseudoperonospora cubensis: the biological activity of the formulation is measured with a spore suspension spray inoculation method. Pot-cultured cucumber seedlings in the same growth state in the 1-leaf and 1-heart stage (with the growing point removed) are selected, sprayed with the formulation, and dried naturally. After 24 h, spores on the back side of the leaf infected by the disease is picked with a writing brush dipped with distilled water, and are prepared into spore suspension (2-3×10^5 spores/[…]), the spore suspension is sprayed uniformly with an inoculating sprayer (at 0.1 MPa pressure) to the leaves of cucumbers, and then the inoculated cucumber seedlings are moved into a climatic chamber (relative humidity: 100%, temperature: 20° C., light-dark cycle time: 14 h/10 h) and cultured. After 24 h, the relative humidity is maintained at about 90% for induction; after 5 d, grading and investigation are carried out on the basis of the disease situation of the blank control group, and the control effect (%) is calculated according to the disease severity index. 2. […]

Data on two molecules can be found in patent publication US11166462B2, “Fungicidal compound, fungicide composition and preparation and use thereof” (Zhejiang Udragon Bioscience Co., Ltd., priority 2016, dated 2021).

Structures are written as SMILES. Converted amounts (≈) assume the structure as drawn.

On to `CN(C)S(=O)(=O)n1cnc(S(=O)(=O)Oc2ccc3ccccc3c2Br)n1` [Compound Y14078], for which the “control effect against rice sheath blight (in words)” value in the series on Rhizoctonia solani is on record as “good control effect”. In addition, in the series on Rhizoctonia solani, the “Control effect (%) Rice sheath blight” value is reported as 52.5%. Also, a half-maximal effect in series [1] (EC50) was put at 12.2 µg/mL (≈ 26.5 µM). Further, the “control effect against cucumber downy mildew (in words)” value in series [1] is recorded as “especially remarkable”. Besides, the “Control effect (%) Cucumber downy mildew” value in series [1] is listed as 100%. For the same molecule, the “Control effect (%)” value in series [1] (concentration 6.25 mg/L) is reported as 35.56%; in series [1] (concentration 12.5 mg/L), 49.97%; in series [1] (concentration 25 mg/L), 67.27%; in series [1] (concentration 50 mg/L), 76.24%; in series [1] (concentration 100 mg/L), 87.58%.
As to `CN(C)S(=O)(=O)n1cnc(S(=O)(=O)Oc2ccc(Oc3ccccc3)cc2)n1` [Compound Y14079], the melting point (in general, the temperature, or range, at which the solid turns liquid) is 141 to 143 °C. In the series with Rhizoctonia solani, the “control effect against rice sheath blight (in words)” value is recorded as “good control effect” and the “Control effect (%) Rice sheath blight” value amounted to 67.5%. In series [1], the EC50 (commonly the concentration at which the effect is half-maximal) turned out to be 13.6 µg/mL (≈ 32 µM), the “control effect against cucumber downy mildew (in words)” value is “especially remarkable” and the “Control effect (%) Cucumber downy mildew” value worked out at 100%. Besides, the “Control effect (%)” value in series [1] (concentration 6.25 mg/L) was determined as 31.21%. Further, the “Control effect (%)” value in series [1] (concentration 12.5 mg/L) was 47.79%. Moreover, the “Control effect (%)” value in series [1] (concentration 25 mg/L) is given as 59.89%. Moreover, the “Control effect (%)” value in series [1] (concentration 50 mg/L) is listed as 85.56%. The “Control effect (%)” value in series [1] (concentration 100 mg/L) came out at 94.63%.
